Key:
H3255 cells = experiment: Cell viability assay (CellTiter-Glo); format: cell-based; conditions: Homo sapiens, NCI-H3255, 72 h of treatment
Procedure: (A) Dose–response curves for ZNL-0056 and osimertinib in H3255 cells following 72 h of treatment. Cell viability was assessed with CellTiter-Glo. Data are presented as the mean ± SEM (n = 4). Representative data from three independent experiments are shown. (B) Immunoblot assessment of the effect of ZNL-0056 on EGFR signaling pathway in H3255 cells after 6 h treatment. Representative blots from two independent experiments are shown. […] TEXT PRINTED IN THE PICTURE: (A) ZNL-0056: H3255: IC50 (nM): 471.3 | (A) Osimertinib: H3255: IC50 (nM): 27.76 […]
For infection of Ba/F3 cells, 2.5 mL of viral supernatant and 8 μg/mL polybrene was added to 2.5 million cells per well in six-well plates. […]
Cells were lysed in RIPA buffer (150 mM NaCl, 1.0% IGEPAL® CA-630, 0.5% sodium deoxycholate, 0.1% SDS, 50 mM Tris, pH 8.0) (Sigma, Cat# R0278) with protease inhibitor and phosphatase inhibitor (Roche). The protein concentrations were measured by BCA analysis (Thermo Fisher Scientific, Cat # PI23225). […]
or IRDye 680RD goat anti-Mouse IgG (LICOR Biosciences , Cat # 926-68070) secondary antibodies at room temperature for 1 hour. The membranes were detected on Odyssey CLx system. […]
treatment. Cell viability was determined by using CellTiter-Glo (Promega #G7571) according to the manufacturer’s instructions, measuring luminescence using an Envision plate-reader (PerkinElmer Inc.). […]

[1] = test system: FGFR1, FMS, PDGFRb, TYRO3; experiment: KiNativ profiling in H3255 cells; format: cell-based, human; conditions: 2.5 µM; Lys1; VAVKMLK
Procedure: (§1) H3255 cells were plated with 6.5x10^6 per condition in fresh media in 15 cm plates and treated the 80% confluency for 2 hours with DMSO or 2.5 μM of ZNL-0056. To harvest cells, plates were washed 3 times with cold PBS, then collected by scraping into 4 mL of cold PBS containing protease and phosphatase inhibitors. Cells were pelleted by centrifugation at 1350 g at 4 ℃ for 5 minutes and immediately frozen in liquid nitrogen. The frozen samples were sent to ActivX Biosciences (La Jolla, CA) for the remainder of the KiNativ profiling experiment4. […]
(§2) Human EGFR kinase domain (residues 696-1022) with T790M and V948R mutations was cloned with an N-terminal, protease cleavable His -GST tag. Recombinant protein was expressed in SF9 insect cells using baculovirus generated from the pFastBac system (Thermo Fisher) .
(§3) Briefly, cells at a density of ~2x10^6 cells/mL were infected with 1% (v/v) virus stock and grown for ~72 hours before harvesting and freezing the cell pellet . Infected cells were lysed in buffer A (50 mM Tris pH 8.0, 500 mM NaCl, 5% glycerol, 0.5 mM Tris(2-carboxyethyl)phosphine [TCEP]), ultracentrifuged at >200,000 rcf for 1 h, and the supernatant flo wed through Ni-NTA resin by gravity. The resin was washed with buffer A supplemented with 40 mM imidazole by […]

MET = test system: T1, MET; experiment: KiNativ profiling in H3255 cells; format: cell-based, human; conditions: 2.5 µM; Activation Loop; DMYDKEYYSVHNK
T1 construct: purchased ActivX Biosciences (KiNativ)
Procedure: as §1, §2, §3

CDK2 = test system: T2, CDK2; experiment: KiNativ profiling in H3255 cells; format: cell-based, human; conditions: 2.5 µM
T2 construct: purchased ActivX Biosciences (KiNativ)
Procedure: as §1, §2, §3

[2] = test system: CaMK2a, CaMK2b, CaMK2d, CaMK2g; experiment: KiNativ profiling in H3255 cells; format: cell-based; conditions: 2.5 µM; Lys2; DLKPENLLLASK
Procedure: as §1

IKKb = test system: T3, IKKb; experiment: KiNativ profiling in H3255 cells; format: cell-based, human; conditions: 2.5 µM
T3 construct: purchased ActivX Biosciences (KiNativ)

[3] = Glutathione (GSH) reactivity; format: in vitro ADME; conditions: glutathione (GSH) in buffer; read-out: half-life of conjugation with glutathione (GSH)
Procedure: Table S3. Glutathione (GSH) reactivity of ZNL-0056
*NGSH1440: the abbreviation of no glutathione. No glutathione is added into NGSH sample
(replaced by buffer) during the 24 hour-incubation R2 is the correlation coefficient of the linear
regression for the determination of kinetic constant.
(1 picture or pasted object on this page, not shown here)

Work on `C=CC(=O)Nc1cc(C(=O)Nc2nc3cccc(C)c3n2[C@@H]2CCCCN(C(=O)C=C)C2)cs1` [ZNL-0056] yielded an IC50 (H3255 cells) of 471 nM, an Inhibition [1] of -17.7% and an Inhibition (MET) of -17.6%. For the same compound, the Inhibition (CDK2; Lys1, LTGEVVALKK) was 0.6%, the Inhibition (CDK2; Lys2, DLKPQNLLINTEGAIK) was 13.1% and the Inhibition [2] was -8.1%. It also gave an Inhibition (IKKb; Lys1, WHNQETGEQIAIKQCR) of 11.2%, an Inhibition (IKKb; Lys2, DLKPENIVLQQGEQR) of 2.0% and a half-life [3] of 36 min.
Compound `C=CC(=O)Nc1cc(Nc2nccc(-c3cn(C)c4ccccc34)n2)c(OC)cc1N(C)CCN(C)C` [Osimertinib, osimertinib, reference compound] has an IC50 (H3255 cells) of 27.8 nM, an Inhibition [1] of 0.6% and an Inhibition (MET) of -2.3%. For the same compound, the Inhibition (CDK2; Lys1, LTGEVVALKK) was 14.1%, the Inhibition (CDK2; Lys2, DLKPQNLLINTEGAIK) was 9.6% and the Inhibition [2] was 3.2%. For the same compound, the Inhibition (IKKb; Lys1, WHNQETGEQIAIKQCR) was -16.0%, the Inhibition (IKKb; Lys2, DLKPENIVLQQGEQR) was -28.9% and the half-life [3] was 49 min.

— paper PMC11212140, “Molecular Bidents with Two Electrophilic Warheads as a New Pharmacological Modality” (ACS Central Science, 2024)
